Here are results for one molecule from ChEMBL document CHEMBL2429757, “Discovery of a novel series of potent non-nucleoside inhibitors of hepatitis C virus NS5B” (J Med Chem, 2013).

Where only a bound is given, the exact number is not on record here.

The nature of the data set: Thermal aqueous solubility of the compound at pH 6.4 by high throughput assay. Type of data set: physicochemical. Particulars: buffer.

`COc1c(/C=C/c2ccc(NS(C)(=O)=O)cc2)cc(-c2ccc[nH]c2=O)cc1C(C)(C)C` returned a solubility below 1 µg/mL.

The solubility is the dissolved amount per volume that the medium holds. A higher solubility goes with much dissolved substance.
